Measured values published in US20210236507A1, “METHODS AND PHARMACEUTICAL COMPOSITIONS FOR PREVENTING RELAPSE IN A PERSON WITH AN ADDICTION USING BETA ADRENERGIC RECEPTOR ANTAGONIST AND MUSCARINIC RECEPTOR ANTAGONIST COMBINATIONS” (MAGNOLIA CNS, LLC, priority 2020, published 2021).
“Also recorded” adds a separate entry of the source. Structures can show the parent of a compound that is named as a salt. Values belong to the compound of their own block, whether it stands above or below them.

What was measured:
humans = experiment: Taste and mouth paresthesia of dose forms noted in humans during development; format: in vivo, human; details: sublingual/liquid/solid dose forms
Excerpt: The pharmaceutical compositions of the present invention, when intended for sublingual, buccal, and/or oral delivery, may benefit from taste-masking with natural and/or artificial flavors and/or sweeteners (e.g., mannitol, sucralose, monosaccharides, and disaccharides). Mouth paresthesia (numbness) can occur with propranolol HCl as a perceived adverse effect.
Alternative beta blockers may be chosen that lack these undesirable properties, such as atenolol.
Tablets are formed by compression of the powder using a mechanical tablet press. For instance tablets without coatings are prepared with composition #11 at about 70 mg each, for use as sublingual or oral dose forms. At this size of tablet an adult dose would deliver 20 mg propranolol HC and 0.5 mg scopolamine HBr. Alternatively, tablets may be produced using a triturate tablet mold (e.g., from the vendor PCCA), wherein the triturated powder is moistened with 95% ethanol and then the wells are filled with the moistened composition, extruded from the wells, and dried. The intra-oral mucosal (e.g., sublingual) tablets dissolve rapidly under the tongue, for instance in less than one minute (e.g., solid dose forms #13 and 14). […] Sublingual (or buccal) tablets may be preferred for rapid disintegration, dissolution, absorption and increased bioavailability via the mucosal route. A sublingual tablet of #23 weighing ca. 82 mg delivers a dose of ca. 25 mg atenolol and ca. 0.25 mg of scopolamine HBr. Tablets may also be ingested orally, although it is rational to presume that absorption will be somewhat delayed and bioavailability will be somewhat reduced with many APIs, relative to the mucosal route.

[1] = molecular target: muscarinic acetylcholine receptors (all five human receptor subtypes); details: cited from earlier work

Compound: CC(C)NCC(O)COc1ccc(CC(N)=O)cc1 (stereo not drawn) [atenolol]
mouth/tongue paresthesia (humans): neither property was observed; also recorded: lacked these undesirable characteristics
taste (humans): neither property was observed; also recorded: lacked these undesirable characteristics

mouth/tongue paresthesia (humans; HCl): delayed paresthesia of the tongue
taste (humans; HCl): “acidic” and “medicine” taste
mouth/tongue paresthesia (humans; listed as propranolol HCl, HCl): produces mouth paresthesia
taste (humans; listed as propranolol HCl, HCl): “acidic” and “medicine” taste
mouth/tongue paresthesia (humans; listed as propranolol, HCl): Paresthesia
taste (humans; listed as propranolol, HCl): undesirable taste
Compound: CC(C)NCC(O)COc1cccc2ccccc12 (stereo not drawn) [Propranolol HCl]

Compound: CN1[C@@H]2C[C@@H](OC(=O)[C@H](CO)c3ccccc3)C[C@H]1[C@@H]1O[C@@H]12 [Scopolamine]
Ki [1]: 0.34 to 53 nM
